Data set [1] relates to Mus musculus. The data set can be described thus: Time of peak effect in mice following i.p. administration. The class given is functional.
For data set [2], the system named is Mus musculus. The data set can be described thus: Anticonvulsant activity in Maximal electroshock seizure test at 100 mg/kg i.p. in mice. Also noted: dose 100 mg/kg. The class given is functional, organism-based. On the technique in general: Protection in the maximal electroshock model is a classic sign of anticonvulsant action.
The subject of data set [3] is Mus musculus. In words: The compound was tested for anticonvulsant activity in Maximal electroshock seizure test (MES) for 4 hr in mice(ip); active at 100 mg/kg. The class given is functional, organism-based. More on the design: dose 100 mg/kg.
The subject of data set [4] is Mus musculus. The data set can be described thus: The compound was tested to inhibit 50% of induced maximal electroshock seizure in mice on ip administration. The format is functional.
Data set [5] concerns Mus musculus. The data set can be described thus: Inhibition of s.c. pentylenetetrazole induced seizure in mice following i.p. administration. The class given is functional.
The species entered for data set [6] is Mus musculus. The data set can be described thus: Protective index value is the ratio between TD50 and ED50 values. The format is functional.
Data set [7] has as its system Mus musculus. The data set can be described thus: The compound was tested for anticonvulsant activity in subcutaneous pentylenetetrazole seizure test (sc Met) for 30 min in mice; active at 300 mg/kg. Also noted: dose 300 mg/kg. The format is functional, organism-based.
Data set [8] has as its system Mus musculus. In words: The compound was tested for anticonvulsant activity in subcutaneous pentylenetetrazole seizure test (sc Met) for 4 hr in mice; active at 300 mg/kg. Also noted: dose 300 mg/kg. The format is functional, organism-based.
Data set [9] relates to Rattus norvegicus. The data set can be described thus: The compound was tested for the effective oral dose to inhibit 50% of the anticonvulsant in rats. The class given is functional.
The subject of data set [10] is Rattus norvegicus. In words: The compound was tested for the toxic dose on oral administration. The class given is functional.
Data set [11] is filed under the species Rattus norvegicus. In words: Protective index value is the ratio between ED50 and TD50. The format is functional.
Data set [12] can be described thus: The compound was tested for neurologic toxicity (rotarod) test for 30 min in mice; active at 100 mg/kg. The class given is organism-based. Also noted: dose 100 mg/kg. Particulars: mouse, in vivo, 0.5 h. (In general: Falling from the rotarod earlier than controls is read as motor impairment.)
Data set [13] in a line: The compound was determined for the dose (mg/kg) by rotarod test at the time of peak neurotoxic effect in mice on ip administration. The format is ADME, organism-based. Particulars: mouse, in vivo.
The nature of data set [14]: The compound was tested for time of peak effect (TPE) in hours for its toxicity in mice on ip administration. The format is organism-based. The settings on record: mouse, in vivo.
Data set [15] in a line: The compound was tested for neurologic toxicity (rotarod) test for 4 hours in mice; active at 300 mg/kg. The format is organism-based. Also noted: dose 300 mg/kg. The settings on record: mouse, in vivo.
Data set [16] deals with Mus musculus. The data set can be described thus: The compound was tested for anticonvulsant activity in Maximal electroshock seizure test (MES) for 4 hr in mice(ip); no activity or toxicity at 300 mg/kg. The class given is functional, organism-based. More on the design: dose 300 mg/kg.
Data set [17] deals with Mus musculus. In words: Anticonvulsant activity in subcutaneous pentylenetetrazole seizure test for 30 min in mice; No activity/toxicity at 300 mg/kg. The format is functional, organism-based. Also noted: dose 300 mg/kg.
Data set [18] concerns Mus musculus. The data set can be described thus: The anticonvulsant activity in subcutaneous pentylenetetrazole seizure test (sc Met) for 4 hr in mice; no activity or no toxicity at 300 mg/kg. The class given is functional, organism-based. More on the design: dose 300 mg/kg.
Data set [19] is described as follows: The compound was tested for neurologic toxicity (rotarod) test for 30 min in mice; active at 30 mg/kg. The settings on record: mouse, in vivo, 0.5 h. The format is organism-based. More on the design: dose 30 mg/kg.
A short description of data set [20]: The compound was tested for neurologic toxicity (rotarod) test for 4 hours in mice; active at 30 mg/kg. Also noted: dose 30 mg/kg. Particulars: mouse, in vivo. The class given is organism-based.
The subject of data set [21] is Mus musculus. The data set can be described thus: The compound was tested for anticonvulsant activity in Maximal electroshock seizure test for 30 min in mice(ip); active at 30 mg/kg. The format is functional, organism-based. Also noted: dose 30 mg/kg.
The nature of data set [22]: The compound was tested for neurologic toxicity (rotarod) test for 4 hours in mice; no activity or no toxicity at 300 mg/kg. The format is organism-based. Also noted: dose 300 mg/kg. Particulars: mouse, in vivo.
Data set [23] is described as follows: The compound was tested for neurologic toxicity (rotarod) test for 30 min in mice; no activity or no toxicity at 300 mg/kg. The format is organism-based. More on the design: dose 300 mg/kg. The settings on record: mouse, in vivo, 0.5 h.
For data set [24], the system named is Mus musculus. The data set can be described thus: The compound was tested for anticonvulsant activity in Maximal electroshock seizure test (MES) for 30 min in mice(ip); activity at 30 mg/kg. The class given is functional, organism-based. Also noted: dose 30 mg/kg.
The test system of data set [25] is Mus musculus. In words: The compound was tested to inhibit 50% of induced subcutaneous pentylenetetrazole seizure in mice on ip administration. The format is functional.
In data set [26] the test system is Mus musculus. The data set can be described thus: The compound was determined for the dose (mg/kg) by rotarod test at the time of peak neurotoxic effect in mice on ip administration. The class given is functional.
Data set [27] deals with Mus musculus. In words: The compound was tested for anticonvulsant activity in subcutaneous pentylenetetrazole seizure test (sc Met) for 4 hr in mice; no activity or toxicity at 300 mg/kg. The format is functional, organism-based. Also noted: dose 300 mg/kg.
The subject of data set [28] is Mus musculus. In words: The compound was tested for anticonvulsant activity in subcutaneous pentylenetetrazole seizure test (sc Met) for 30 min in mice; no activity or toxicity at 300 mg/kg. Also noted: dose 300 mg/kg. The class given is functional, organism-based.
The test system of data set [29] is Rattus norvegicus. In words: The compound was tested per os dose of 30 mg/kg for 0.25 hours for maximal electroshock test on rats; MES= 3/4. The class given is functional.
Data set [30] relates to Rattus norvegicus. The data set can be described thus: The compound was tested per os dose of 30 mg/kg for 0.25 hours for rotarod toxicity; 0/4. The class given is functional.
Data set [31] relates to Rattus norvegicus. The data set can be described thus: The compound was tested per os dose of 30 mg/kg for 0.5 hours for maximal electroshock test (MES) on rats; MES= 2/4. The class given is functional.
The subject of data set [32] is Rattus norvegicus. The data set can be described thus: The compound was tested per os dose of 30 mg/kg for 0.5 hours for rotarod toxicity; 0/4. The class given is functional.
The subject of data set [33] is Rattus norvegicus. In words: The compound was tested per os dose of 30 mg/kg for 1 hour for maximal electroshock test (MES) on rats; MES= 1/4. The class given is functional.
For data set [34], the system named is Rattus norvegicus. In words: The compound was tested per os dose of 30 mg/kg for 1 hour for rotarod toxicity; 0/4. The format is functional.
The subject of data set [35] is Rattus norvegicus. In words: The compound was tested per os dose of 30 mg/kg for 2 hours for maximal electroshock test (MES) on rats; MES= 0/4. The class given is functional.
Data set [36] has as its system Rattus norvegicus. The data set can be described thus: The compound was tested per os dose of 30 mg/kg for 2 hours for rotarod toxicity; 0/4. The format is functional.
Data set [37] has as its system Rattus norvegicus. The data set can be described thus: The compound was tested per os dose of 30 mg/kg for 4 hours for maximal electroshock test (MES) on rats; MES= 0/4. The class given is functional.
Data set [38] has as its system Rattus norvegicus. The data set can be described thus: The compound was tested per os dose of 30 mg/kg for 4 hours for rotarod toxicity; 0/4. The class given is functional.
Data set [39] relates to Rattus norvegicus. The data set can be described thus: The compound was tested for the effective oral dose to inhibit 50% of the anticonvulsant in rats.(value in parenthesis indicate 95% confidence limits). The class given is functional.
Another data set has as its target Sigma 2 receptor. In words: Affinity on sigma 2 receptor using [3H]- DTG as radioligand.
The target of data set [40] is Sigma non-opioid intracellular receptor 1 (Homo sapiens) (UniProt Q99720). The data set can be described thus: Ratio between the Ki(nM)values of sigma-2 and sigma-1. Particulars: Cavia porcellus. The class given is functional.
Sigma non-opioid intracellular receptor 1 (Homo sapiens), sequence (Q99720 whole entry): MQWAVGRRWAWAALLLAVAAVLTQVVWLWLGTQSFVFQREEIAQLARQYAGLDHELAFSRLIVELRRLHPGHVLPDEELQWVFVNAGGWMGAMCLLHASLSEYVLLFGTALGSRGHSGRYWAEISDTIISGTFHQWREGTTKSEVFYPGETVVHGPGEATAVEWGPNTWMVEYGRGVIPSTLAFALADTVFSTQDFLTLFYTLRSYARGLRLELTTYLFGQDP
The nature of data set [41]: The compound was tested for neurologic toxicity (rotarod) test for 30 min in mice; no activity or toxicity at 300 mg/kg. The class given is organism-based. More on the design: dose 300 mg/kg. The settings on record: mouse, in vivo, 0.5 h.
A short description of data set [42]: The compound was tested for neurologic toxicity (rotarod) test for 4 hr in mice; no activity or toxicity at 300 mg/kg. The format is organism-based. More on the design: dose 300 mg/kg. Particulars: mouse, in vivo.

pKi: −log10 of the molar value. Values joined by “and” are separate entries in the source; they are usually repeats but may differ in a detail not shown here. Equal values may be shown once. Active and inactive are the calls of the source. The calls are words filed in the database; no cut-off is given here. Some results are limits rather than exact numbers.

The results in this text go back to ChEMBL document CHEMBL1131315, “Synthesis and anticonvulsant activity of 2(3H)-benzoxazolone and 2(3H)-benzothiazolone derivatives” (J Med Chem, 1998).

As usually defined, the ED50 is the dose at which the effect has come halfway, by size or by number of responders. In general, TD50 refers to the dose at which the toxic effect under study appears in half of the subjects. Low values mean greater toxicity, high ones lower toxicity. For orientation: pKi means the negative decadic logarithm of the Ki, by convention in mol/L.

Compound `CCCCCc1ccc2nc(O)sc2c1` returned an Activity in the data set with Mus musculus [1] of 0.25 h. In addition, the MES result with Mus musculus [2] and in the data set on Mus musculus [3] was “active at 100 mg/kg” throughout. Further, the ED50 with Mus musculus [4] came out at 58.9 mg/kg; in the data set on Mus musculus [5], 90.5 mg/kg; in the data set on Rattus norvegicus [9], 50.5 mg/kg. Further, the PI in the data set listed under Mus musculus [6] is 2.3 and 1.5; in the data set listed under Rattus norvegicus [11], 2.4. In addition, the scMet result with Mus musculus [7] and with Mus musculus [8] was “active at 300 mg/kg” throughout. Further, the values for the TD50 (in the data set with Rattus norvegicus [10]; in data set [13]) were greater than 120 mg/kg and 137 mg/kg, respectively. In addition, the Rotarod toxicity result in data set [12] and in [15] was “active at 100 mg/kg” each time. For the same compound, the Toxicity in [14] came to 0.5 h.

`CCC(=O)c1ccc2c(c1)oc(=O)n2CCCN1CCCCC1`: the MES result in the data set with Mus musculus [16] and in the data set on Mus musculus [2] was “No activity or toxicity at 300 mg/kg” each time. Besides, the scMet result in the data set with Mus musculus [17] and with Mus musculus [18] was “No activity or no toxicity at 300 mg/kg” throughout. For the same compound, the Rotarod toxicity result in data set [19] and in [20] was “active at 30 mg/kg” each time.

Take `CCC(=O)c1ccc2c(c1)sc(=O)n2CCCN1CCCCC1`: the MES result in the data set on Mus musculus [21] and with Mus musculus [16] was “active at 30 mg/kg” in each case. For the same compound, the scMet result with Mus musculus [17] and in the data set on Mus musculus [18] was “No activity or no toxicity at 300 mg/kg” in each case. The Rotarod toxicity entry in [19] and in data set [22] was “active at 30 mg/kg” each time.

In the case of `CCCC(CCC)C(=O)O` [VALPROIC ACID], the results for the ED50 with Mus musculus [5] and in the data set on Rattus norvegicus [9] were 149 mg/kg and 490 mg/kg, respectively.

As to `Cn1c(=O)oc2cc(C(=O)c3ccccc3)ccc21`, the MES entry in the data set with Mus musculus [16] and in the data set with Mus musculus [2] was “No activity or toxicity at 300 mg/kg” throughout. Besides, the scMet entry with Mus musculus [7] and in the data set on Mus musculus [18] was “active at 300 mg/kg” throughout. Moreover, the Rotarod toxicity entry in [23] and in data set [22] was “No activity or no toxicity at 300 mg/kg” throughout.

On to `CCC(=O)c1ccc2c(c1)sc(=O)n2C(=O)CC`, for which the Activity with Mus musculus [1] turned out to be 0.25 h; in the data set with Rattus norvegicus [29], 3; with Rattus norvegicus [30] it was 0; in the data set on Rattus norvegicus [31], 2; with Rattus norvegicus [32], 0; in the data set with Rattus norvegicus [33], 1. Also, the Activity with Rattus norvegicus [34], in the data set with Rattus norvegicus [35], with Rattus norvegicus [36], in the data set on Rattus norvegicus [37] and in the data set on Rattus norvegicus [38] was 0 throughout. Further, the MES entry in the data set with Mus musculus [16] and in the data set on Mus musculus [24] was “activity at 30 mg/kg” throughout. In addition, the figures for the ED50 in the data set on Mus musculus [4], in the data set with Mus musculus [25] and in the data set with Rattus norvegicus [39] were 19.4 mg/kg, greater than 300 mg/kg and 32.4 mg/kg, respectively. This compound also displayed a TD50 with Mus musculus [26] of 145 mg/kg. Besides, the scMet entry in the data set on Mus musculus [27] and in the data set with Mus musculus [28] was “No activity or toxicity at 300 mg/kg” in each case. For the same compound, the pKi at Sigma 2 receptor was 6.17. Besides, the Ratio in [40] was determined as 11. This compound displayed a Toxicity in [14] of 0.25 h. Also, the Rotarod toxicity entry in [41] and in [42] was “No activity or toxicity at 300 mg/kg” in each case.
